The source made the active and inactive calls.
How the values were obtained:
[1] = molecular target: T1, Ubiquitin-conjugating enzyme E2 N (Homo sapiens, UniProt P61088); format: functional
T1 sequence (P61088 whole entry): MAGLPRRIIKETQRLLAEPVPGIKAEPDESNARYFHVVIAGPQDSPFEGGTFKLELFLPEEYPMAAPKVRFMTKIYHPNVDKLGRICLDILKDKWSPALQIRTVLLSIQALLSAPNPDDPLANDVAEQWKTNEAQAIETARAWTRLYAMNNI

Bcl-2-related protein A1 = molecular target: T2, Bcl-2-related protein A1 (Mus musculus, UniProt Q07440); format: functional;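 also: confirmatory dose–response counterscreen on Bfl-1, used to check hits from a UBC13 polyubiquitin inhibitor campaign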
T2 sequence (Q07440 whole entry): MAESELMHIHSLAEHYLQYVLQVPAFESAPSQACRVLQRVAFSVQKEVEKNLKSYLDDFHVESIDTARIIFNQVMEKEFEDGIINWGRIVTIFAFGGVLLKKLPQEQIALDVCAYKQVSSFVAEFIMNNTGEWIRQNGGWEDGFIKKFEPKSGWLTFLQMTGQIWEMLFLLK

[2] = molecular target: T1, Ubiquitin-conjugating enzyme E2 N; format: functional; remark: listed apart in the source
[3] = molecular target: T3, Short transient receptor potential channel 4 (Mus musculus, UniProt Q9QUQ5); assay: mouse TRPC4 channel activators, dose response, cell-based, HEK293 TRPC4/mu-opioid, Fluo-4 calcium (AID 434937); format: functional
T3 sequence (Q9QUQ5 whole entry): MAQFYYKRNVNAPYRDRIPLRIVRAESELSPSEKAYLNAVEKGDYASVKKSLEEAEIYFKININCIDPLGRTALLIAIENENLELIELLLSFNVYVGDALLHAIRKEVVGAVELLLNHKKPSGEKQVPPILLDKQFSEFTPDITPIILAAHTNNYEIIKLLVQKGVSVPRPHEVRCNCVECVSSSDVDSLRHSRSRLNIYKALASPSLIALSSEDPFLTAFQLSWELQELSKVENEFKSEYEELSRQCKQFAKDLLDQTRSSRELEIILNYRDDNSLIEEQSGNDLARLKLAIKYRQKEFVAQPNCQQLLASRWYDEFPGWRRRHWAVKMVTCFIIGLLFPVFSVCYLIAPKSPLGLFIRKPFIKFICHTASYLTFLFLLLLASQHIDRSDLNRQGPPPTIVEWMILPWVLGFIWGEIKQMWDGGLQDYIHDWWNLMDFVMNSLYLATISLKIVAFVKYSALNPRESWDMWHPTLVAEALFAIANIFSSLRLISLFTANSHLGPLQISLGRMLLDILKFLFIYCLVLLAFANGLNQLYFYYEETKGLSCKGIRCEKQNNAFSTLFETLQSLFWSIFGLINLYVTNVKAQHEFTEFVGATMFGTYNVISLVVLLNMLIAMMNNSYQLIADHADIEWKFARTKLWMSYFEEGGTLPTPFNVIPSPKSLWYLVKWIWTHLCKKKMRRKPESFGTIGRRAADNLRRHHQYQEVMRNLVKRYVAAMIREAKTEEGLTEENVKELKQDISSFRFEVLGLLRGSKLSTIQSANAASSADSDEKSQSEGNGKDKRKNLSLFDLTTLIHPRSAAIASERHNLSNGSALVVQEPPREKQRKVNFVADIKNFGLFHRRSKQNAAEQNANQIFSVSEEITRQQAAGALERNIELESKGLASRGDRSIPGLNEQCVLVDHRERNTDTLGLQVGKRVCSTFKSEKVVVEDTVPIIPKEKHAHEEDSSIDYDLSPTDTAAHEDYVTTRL

Cytochrome P450 2D6 = Cytochrome P450 2D6 (Homo sapiens, UniProt P10635);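 also: CYP2D6 member of a cytochrome P450 panel assay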
[4] = molecular target: T4, Delta-type opioid receptor (Homo sapiens, UniProt P41143); assay: HTS Image-Based Screen for Agonists of the DOR Receptor. [Related pubchem assays (depositor defined):AID1777, AID1786, AID2133]; format: functional
Beta-galactosidase [5] = molecular target: T5, Beta-galactosidase (Escherichia coli, UniProt Q8VNN2); assay: beta-galactosidase enzyme inhibitors and activators, dose response, artefact control for CCR6 antagonist project, biochemical, E. coli enzyme, set 3 (AID 504712); format: functional
[6] = molecular target: T4, Delta-type opioid receptor; assay: HTS Image-Based Screen for Antagonists of the DOR Receptor. [Related pubchem assays (depositor defined):AID1777, AID1785, AID1786, AID2133]; format: functional
Beta-galactosidase [7] = molecular target: T5, Beta-galactosidase; format: functional
Cytochrome P450 2C9 = Cytochrome P450 2C9 (Homo sapiens, UniProt P11712)
[8] = molecular target: T6, C-C chemokine receptor type 6 (Homo sapiens, UniProt P51684); assay: CCR6 receptor antagonists, dose response, cell-based, luminescent beta-arrestin readout (AID 504728); format: functional
T6 sequence (P51684 whole entry): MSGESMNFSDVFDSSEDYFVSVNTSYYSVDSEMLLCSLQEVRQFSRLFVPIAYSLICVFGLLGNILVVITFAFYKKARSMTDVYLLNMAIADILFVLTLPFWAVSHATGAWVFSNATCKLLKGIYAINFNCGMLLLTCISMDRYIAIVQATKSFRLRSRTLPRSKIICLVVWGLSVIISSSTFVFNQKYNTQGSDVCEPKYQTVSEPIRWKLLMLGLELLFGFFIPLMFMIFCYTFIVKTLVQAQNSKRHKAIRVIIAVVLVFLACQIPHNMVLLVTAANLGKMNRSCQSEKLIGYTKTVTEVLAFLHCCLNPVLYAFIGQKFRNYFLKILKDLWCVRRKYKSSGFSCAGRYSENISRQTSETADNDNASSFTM

[9] = molecular target: T7, Kappa-type opioid receptor (Homo sapiens, UniProt P41145); format: functional
Cytochrome P450 2C19 = Cytochrome P450 2C19 (Homo sapiens, UniProt P33261); assay: Cytochrome panel assay with activity outcomes. Panel member name: p450-cyp2c19 Compounds with AC50 equal or less than 10 uM are considered active; format: functional; conditions: read-out: AC50
Mu-type opioid receptor = Mu-type opioid receptor (Homo sapiens, UniProt P35372); assay: HTS Image-Based Screen for Agonists of the MOR Receptor. [Related pubchem assays (depositor defined):AID1777, AID1785, AID1786, AID2133]; format: functional;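 also: imaging of beta-arrestin GFP recruitment into spots after receptor activation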
[10] = cytotoxicity toward NIH3T3 fibroblasts, dose response, counter-screen, cell-based, ATP luminescence, mouse fibroblasts (AID 2010); format: functional;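 also: cells exposed to compound for about 90 hours before reading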
[11] = molecular target: T7, Kappa-type opioid receptor; format: functional; remark: listed apart in the source
[12] = inhibitors of intracellular T. cruzi replication, confirmation, NIH3T3 host cells, beta-gal luminescence (AID 2044); format: functional, cell-based;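 also: intracellular parasites grown in NIH/3T3 mouse fibroblasts as host cells; luminescent beta-galactosidase reporter signal from transgenic T. cruzi replicating inside host cells; inhibitors lower the luminescence signal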
[13] = molecular target: T8, E3 ubiquitin-protein ligase XIAP (Homo sapiens, UniProt P98170); assay: XIAP antagonists, biochemical, IAP family, fluorescence polarization (AID 1018); format: functional
[14] = molecular target: T8, E3 ubiquitin-protein ligase XIAP; assay: Counter Screen using XIAP-Bir3 for Chemical Antagonists of Bir1/2 domains of IAP-family anti-apoptotic proteins. [Related pubchem assays (depositor defined):AID1018, AID1449, AID1514, AID1638, AID1749, AID1750, AID488957, AID488963]
[15] = molecular target: T9, Tyrosine-protein phosphatase non-receptor type 22 (Homo sapiens, UniProt Q9Y2R2); format: functional
T9 sequence (Q9Y2R2 whole entry): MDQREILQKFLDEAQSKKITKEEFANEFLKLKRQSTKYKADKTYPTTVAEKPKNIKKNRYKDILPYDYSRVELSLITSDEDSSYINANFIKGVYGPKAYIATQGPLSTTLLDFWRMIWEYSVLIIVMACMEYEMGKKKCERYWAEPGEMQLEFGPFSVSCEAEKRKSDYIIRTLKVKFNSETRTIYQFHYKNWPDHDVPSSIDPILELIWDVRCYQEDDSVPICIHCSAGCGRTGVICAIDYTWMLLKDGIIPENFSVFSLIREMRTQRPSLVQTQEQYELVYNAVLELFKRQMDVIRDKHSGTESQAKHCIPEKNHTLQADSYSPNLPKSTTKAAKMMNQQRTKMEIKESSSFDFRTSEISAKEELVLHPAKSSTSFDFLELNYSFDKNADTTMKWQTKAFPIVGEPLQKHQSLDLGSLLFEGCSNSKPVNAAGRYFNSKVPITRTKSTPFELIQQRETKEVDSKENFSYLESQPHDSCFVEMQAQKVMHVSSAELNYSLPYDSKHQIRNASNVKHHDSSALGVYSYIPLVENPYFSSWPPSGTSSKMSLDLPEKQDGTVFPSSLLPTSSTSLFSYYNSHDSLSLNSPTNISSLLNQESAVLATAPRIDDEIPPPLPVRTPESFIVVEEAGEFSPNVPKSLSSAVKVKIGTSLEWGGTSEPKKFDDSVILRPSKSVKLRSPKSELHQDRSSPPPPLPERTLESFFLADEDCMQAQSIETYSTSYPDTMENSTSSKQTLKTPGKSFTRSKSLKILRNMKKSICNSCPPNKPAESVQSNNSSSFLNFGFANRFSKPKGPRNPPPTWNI

[16] = molecular target: T10, Tyrosine-protein phosphatase non-receptor type 7 (Homo sapiens, UniProt P35236); format: functional
T10 sequence (P35236 whole entry): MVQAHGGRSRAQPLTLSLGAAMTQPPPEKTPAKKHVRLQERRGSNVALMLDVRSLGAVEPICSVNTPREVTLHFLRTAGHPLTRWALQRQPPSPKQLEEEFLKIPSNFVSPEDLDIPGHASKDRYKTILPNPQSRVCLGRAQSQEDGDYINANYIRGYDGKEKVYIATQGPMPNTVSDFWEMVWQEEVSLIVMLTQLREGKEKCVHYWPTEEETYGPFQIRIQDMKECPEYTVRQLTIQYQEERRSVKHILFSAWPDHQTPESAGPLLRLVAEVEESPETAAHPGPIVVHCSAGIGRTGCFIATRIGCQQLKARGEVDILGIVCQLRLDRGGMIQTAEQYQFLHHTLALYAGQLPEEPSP

[17] = molecular target: T9, Tyrosine-protein phosphatase non-receptor type 22; format: functional; remark: listed apart in the source
[18] = test system: Streptococcus sp. 'group A'; assay: growth inhibition of control SK(-) GAS strain, dose response, counter-screen for streptokinase expression inhibitor project, luminescence, kanamycin, BacTiterGlo, confirmation (AID 1900); format: functional, organism-based
Melanocortin receptor 4 = Melanocortin receptor 4 (Homo sapiens, UniProt P32245); format: functional, cell-based;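 also: Cell-based assay with luminescence read-out, confirmatory dose-response testing for agonist activity of biased ligands at MC4R; human U2OS cells with tagged receptor and beta-arrestin; potency of agonists that increase receptor coupling to beta-arrestin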
Streptokinase A = molecular target: T11, Streptokinase A (Streptococcus pyogenes serotype M1, UniProt P10520); assay: S. pyogenes streptokinase expression inhibitors, potency, dose response, plasminogen activation absorbance, OD405 (AID 1914); format: functional, Streptococcus pyogenes M1 GAS;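 also: secreted streptokinase activity via plasminogen activation per viability signal from cell pellet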
T11 sequence (P10520 whole entry): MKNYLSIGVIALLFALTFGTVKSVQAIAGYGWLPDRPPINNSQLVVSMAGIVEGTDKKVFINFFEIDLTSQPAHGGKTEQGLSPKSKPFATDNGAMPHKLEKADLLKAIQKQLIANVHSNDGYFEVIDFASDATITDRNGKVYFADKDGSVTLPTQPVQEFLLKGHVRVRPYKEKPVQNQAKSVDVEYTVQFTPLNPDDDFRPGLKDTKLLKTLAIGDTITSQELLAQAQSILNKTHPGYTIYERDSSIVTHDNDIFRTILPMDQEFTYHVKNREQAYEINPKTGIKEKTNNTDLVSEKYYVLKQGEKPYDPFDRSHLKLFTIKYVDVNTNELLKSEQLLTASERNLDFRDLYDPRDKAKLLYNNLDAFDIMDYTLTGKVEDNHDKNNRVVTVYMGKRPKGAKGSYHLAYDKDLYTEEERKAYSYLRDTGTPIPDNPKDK

[19] = molecular target: Neurotensin receptor type 1 (Homo sapiens, UniProt P30989); format: functional;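 also: Image-based confirmatory dose-response assay measuring agonist activity at NTR1; NTR1-expressing U2OS osteosarcoma cells imaged for beta-arrestin GFP spot formation; agonist potency where compounds increase beta-arrestin recruitment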
Streptococcus = assay: Group A Streptococcus viability loss, dose response, counter-screen for streptokinase expression inhibitor project, luminescence, BacTiterGlo (AID 1915); format: functional, organism-based;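 also: potency for reduction of bacterial viability or growth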

T8 sequence (P98170 whole entry): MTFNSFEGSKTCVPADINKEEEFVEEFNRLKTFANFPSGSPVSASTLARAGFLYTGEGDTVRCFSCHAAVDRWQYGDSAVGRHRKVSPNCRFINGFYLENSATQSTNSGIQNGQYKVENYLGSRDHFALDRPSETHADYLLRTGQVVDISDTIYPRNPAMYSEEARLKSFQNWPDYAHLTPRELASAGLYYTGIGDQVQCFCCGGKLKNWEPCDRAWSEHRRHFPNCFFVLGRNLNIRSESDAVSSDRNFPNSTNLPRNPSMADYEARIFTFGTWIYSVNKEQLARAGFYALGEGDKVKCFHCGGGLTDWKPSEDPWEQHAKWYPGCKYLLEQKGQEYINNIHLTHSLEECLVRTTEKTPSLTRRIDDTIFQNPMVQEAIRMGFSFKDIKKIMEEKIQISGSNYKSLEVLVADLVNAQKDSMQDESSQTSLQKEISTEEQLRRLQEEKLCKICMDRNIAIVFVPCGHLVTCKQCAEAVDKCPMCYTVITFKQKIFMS
T4 sequence (P41143 whole entry): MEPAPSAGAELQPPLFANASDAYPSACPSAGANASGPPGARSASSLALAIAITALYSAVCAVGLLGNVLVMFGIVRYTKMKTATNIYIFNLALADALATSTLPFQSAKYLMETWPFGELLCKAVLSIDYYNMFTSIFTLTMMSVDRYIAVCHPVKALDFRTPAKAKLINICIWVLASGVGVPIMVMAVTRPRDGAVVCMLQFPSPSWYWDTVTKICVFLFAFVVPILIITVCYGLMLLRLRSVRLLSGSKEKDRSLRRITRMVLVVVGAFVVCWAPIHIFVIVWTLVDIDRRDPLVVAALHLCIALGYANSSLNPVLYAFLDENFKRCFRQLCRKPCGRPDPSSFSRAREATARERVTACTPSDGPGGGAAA
T5 sequence (Q8VNN2 whole entry): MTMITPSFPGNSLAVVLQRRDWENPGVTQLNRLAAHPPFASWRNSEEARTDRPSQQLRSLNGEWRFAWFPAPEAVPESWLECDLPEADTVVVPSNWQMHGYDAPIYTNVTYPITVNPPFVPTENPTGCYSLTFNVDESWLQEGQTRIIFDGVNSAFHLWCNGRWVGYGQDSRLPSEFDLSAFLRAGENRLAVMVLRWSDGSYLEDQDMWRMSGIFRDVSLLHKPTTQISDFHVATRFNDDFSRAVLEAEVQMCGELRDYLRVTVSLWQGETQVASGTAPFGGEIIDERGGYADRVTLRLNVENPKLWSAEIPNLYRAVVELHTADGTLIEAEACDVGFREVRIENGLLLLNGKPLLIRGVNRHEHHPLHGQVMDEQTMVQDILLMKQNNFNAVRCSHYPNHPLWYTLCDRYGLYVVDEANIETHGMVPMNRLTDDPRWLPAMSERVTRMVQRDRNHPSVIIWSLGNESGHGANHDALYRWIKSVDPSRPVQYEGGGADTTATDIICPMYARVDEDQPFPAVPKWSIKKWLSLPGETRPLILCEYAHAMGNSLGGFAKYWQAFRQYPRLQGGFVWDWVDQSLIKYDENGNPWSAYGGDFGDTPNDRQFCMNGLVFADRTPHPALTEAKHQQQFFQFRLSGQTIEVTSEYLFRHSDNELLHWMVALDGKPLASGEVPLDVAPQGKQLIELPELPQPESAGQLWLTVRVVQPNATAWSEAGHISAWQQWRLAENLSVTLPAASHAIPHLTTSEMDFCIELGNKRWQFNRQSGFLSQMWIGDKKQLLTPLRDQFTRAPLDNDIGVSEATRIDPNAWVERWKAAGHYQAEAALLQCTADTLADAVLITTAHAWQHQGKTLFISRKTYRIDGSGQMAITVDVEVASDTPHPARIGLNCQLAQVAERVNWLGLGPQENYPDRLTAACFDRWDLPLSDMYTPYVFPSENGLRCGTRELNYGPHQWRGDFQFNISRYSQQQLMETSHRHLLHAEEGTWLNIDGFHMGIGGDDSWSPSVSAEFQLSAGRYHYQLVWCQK
T7 sequence (P41145 whole entry): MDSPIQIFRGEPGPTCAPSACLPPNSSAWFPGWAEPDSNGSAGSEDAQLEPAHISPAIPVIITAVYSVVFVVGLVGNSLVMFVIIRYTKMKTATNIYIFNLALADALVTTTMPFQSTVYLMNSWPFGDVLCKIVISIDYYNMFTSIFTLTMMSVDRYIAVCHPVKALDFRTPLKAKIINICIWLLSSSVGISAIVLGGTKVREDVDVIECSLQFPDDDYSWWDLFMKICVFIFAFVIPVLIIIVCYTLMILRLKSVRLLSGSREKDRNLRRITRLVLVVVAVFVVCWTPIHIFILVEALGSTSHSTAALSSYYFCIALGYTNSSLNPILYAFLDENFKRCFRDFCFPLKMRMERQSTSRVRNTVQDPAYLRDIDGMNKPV
Chain of Cytochrome P450 2D6 (P10635 whole entry): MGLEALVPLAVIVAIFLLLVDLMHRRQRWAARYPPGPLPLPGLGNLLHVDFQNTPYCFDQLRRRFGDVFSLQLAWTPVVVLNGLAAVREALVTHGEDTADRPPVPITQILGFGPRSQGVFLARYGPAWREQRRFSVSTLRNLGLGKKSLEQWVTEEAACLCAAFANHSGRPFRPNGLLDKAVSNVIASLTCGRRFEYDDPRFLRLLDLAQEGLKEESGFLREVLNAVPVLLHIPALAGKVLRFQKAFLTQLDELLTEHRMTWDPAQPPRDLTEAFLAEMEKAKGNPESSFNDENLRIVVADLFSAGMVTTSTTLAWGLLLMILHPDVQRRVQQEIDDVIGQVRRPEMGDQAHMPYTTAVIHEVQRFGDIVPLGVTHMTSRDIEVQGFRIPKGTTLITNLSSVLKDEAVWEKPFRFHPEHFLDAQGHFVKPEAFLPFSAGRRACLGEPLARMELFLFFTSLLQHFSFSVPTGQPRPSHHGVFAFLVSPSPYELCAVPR
Chain of Mu-type opioid receptor (P35372 whole entry): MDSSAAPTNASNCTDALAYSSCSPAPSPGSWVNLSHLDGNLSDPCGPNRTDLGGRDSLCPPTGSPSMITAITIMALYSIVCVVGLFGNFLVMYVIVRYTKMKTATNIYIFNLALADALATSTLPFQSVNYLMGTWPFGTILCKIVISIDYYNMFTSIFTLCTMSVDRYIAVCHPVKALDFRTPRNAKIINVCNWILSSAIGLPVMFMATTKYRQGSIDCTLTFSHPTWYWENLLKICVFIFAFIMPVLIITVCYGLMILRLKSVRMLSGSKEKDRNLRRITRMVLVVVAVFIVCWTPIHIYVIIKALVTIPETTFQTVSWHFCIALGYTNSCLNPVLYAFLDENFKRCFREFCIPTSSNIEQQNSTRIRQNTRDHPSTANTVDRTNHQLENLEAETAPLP
Chain of Melanocortin receptor 4 (P32245 whole entry): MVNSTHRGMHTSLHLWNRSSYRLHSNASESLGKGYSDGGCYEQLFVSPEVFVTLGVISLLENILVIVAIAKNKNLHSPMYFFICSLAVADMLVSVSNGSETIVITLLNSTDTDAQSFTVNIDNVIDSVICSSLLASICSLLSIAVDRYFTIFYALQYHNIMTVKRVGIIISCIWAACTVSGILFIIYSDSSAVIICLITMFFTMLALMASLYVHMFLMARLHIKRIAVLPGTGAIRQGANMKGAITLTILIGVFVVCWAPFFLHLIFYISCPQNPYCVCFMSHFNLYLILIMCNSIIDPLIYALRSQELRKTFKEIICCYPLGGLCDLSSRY
Chain of Neurotensin receptor type 1 (P30989 whole entry): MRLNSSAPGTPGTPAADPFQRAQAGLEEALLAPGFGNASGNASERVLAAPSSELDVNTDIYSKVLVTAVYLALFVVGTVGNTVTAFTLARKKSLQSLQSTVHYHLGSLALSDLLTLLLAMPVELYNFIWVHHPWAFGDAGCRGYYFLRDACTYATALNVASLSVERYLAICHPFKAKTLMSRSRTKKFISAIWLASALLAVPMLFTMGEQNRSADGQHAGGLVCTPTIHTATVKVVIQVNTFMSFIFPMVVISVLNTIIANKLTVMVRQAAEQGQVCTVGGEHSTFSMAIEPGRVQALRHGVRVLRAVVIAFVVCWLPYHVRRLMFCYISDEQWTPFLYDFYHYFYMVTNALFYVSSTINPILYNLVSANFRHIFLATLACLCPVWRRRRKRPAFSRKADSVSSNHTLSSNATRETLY
Chain of Cytochrome P450 2C19 (P33261 whole entry): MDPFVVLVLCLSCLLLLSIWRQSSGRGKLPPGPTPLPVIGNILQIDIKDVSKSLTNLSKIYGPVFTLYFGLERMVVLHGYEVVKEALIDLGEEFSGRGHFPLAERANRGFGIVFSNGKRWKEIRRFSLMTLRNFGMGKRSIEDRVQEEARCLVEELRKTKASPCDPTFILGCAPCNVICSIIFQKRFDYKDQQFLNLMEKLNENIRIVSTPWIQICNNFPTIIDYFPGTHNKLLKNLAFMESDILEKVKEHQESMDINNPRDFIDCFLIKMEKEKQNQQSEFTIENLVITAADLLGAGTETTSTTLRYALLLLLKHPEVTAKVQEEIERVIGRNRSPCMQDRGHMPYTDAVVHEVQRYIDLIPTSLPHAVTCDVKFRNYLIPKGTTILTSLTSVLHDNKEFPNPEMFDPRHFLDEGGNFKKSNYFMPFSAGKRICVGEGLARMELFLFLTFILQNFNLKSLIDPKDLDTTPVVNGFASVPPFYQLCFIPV
Chain of Cytochrome P450 2C9 (P11712 whole entry): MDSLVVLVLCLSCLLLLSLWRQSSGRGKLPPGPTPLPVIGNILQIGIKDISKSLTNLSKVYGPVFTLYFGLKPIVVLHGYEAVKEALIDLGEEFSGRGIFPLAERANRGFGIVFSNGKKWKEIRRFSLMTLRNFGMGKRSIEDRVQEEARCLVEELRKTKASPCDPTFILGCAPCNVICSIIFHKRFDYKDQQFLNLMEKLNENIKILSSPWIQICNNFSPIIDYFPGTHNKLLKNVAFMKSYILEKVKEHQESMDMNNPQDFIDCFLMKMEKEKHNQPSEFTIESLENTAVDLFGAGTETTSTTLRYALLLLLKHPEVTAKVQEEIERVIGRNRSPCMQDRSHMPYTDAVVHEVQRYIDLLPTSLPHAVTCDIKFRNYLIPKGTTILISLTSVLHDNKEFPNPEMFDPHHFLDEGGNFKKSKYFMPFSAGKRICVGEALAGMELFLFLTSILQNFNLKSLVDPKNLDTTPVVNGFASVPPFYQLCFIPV

Structure (SMILES): CCOc1ccccc1NC(=O)CN1CCC(C(=O)c2ccc(F)cc2)CC1
- IC50 [1]: 13.8 µM (active)
- IC50 (Bcl-2-related protein A1): > 20 µM (inactive)
- IC50 [2]: > 20 µM (inactive)

Structure (SMILES): O=C(c1sc2ccccc2c1Cl)N(Cc1ccccc1)C1CCS(=O)(=O)C1 (stereo not given)
- EC50 [3]: 3.35 µM (active)
- AC50 (Cytochrome P450 2D6): 14.1 µM (inconclusive)

Structure (SMILES): CCOC(=O)c1ccc(NC(=O)NCCc2c[nH]cn2)cc1
- EC50 [3]: 0.133 µM (active)

Structure (SMILES): O=C(Nc1nccs1)c1sc2cc(Cl)ccc2c1Cl
- EC50 [4]: > 32 µM (inactive)
- IC50 (Beta-galactosidase [5]): > 66.6 µM (inactive)
- IC50 [6]: > 32 µM (inactive)
- EC50 (Beta-galactosidase [7]): > 31.5 µM (inactive)
- AC50 (Cytochrome P450 2C9): 0.891 µM (inconclusive)
- IC50 [8]: > 66.6 µM (inactive)
- IC50 [9]: > 32 µM
- AC50 (Cytochrome P450 2C19): 0.631 µM (inconclusive)
- EC50 (Mu-type opioid receptor): > 32 µM (inactive)
- EC50 [10]: 17.9 µM (active)
- IC50 [11]: 9.5 µM (active)
- EC50 [12]: 2.31 µM (active)

Structure (SMILES): COc1ccc(OC)c(/C=N/NC(=O)c2ccc(Cn3cc([N+](=O)[O-])cn3)o2)c1
- IC50 [13]: > 100 µM (not active)
- IC50 [14]: > 100 µM (inactive)

Structure (SMILES): O=C(CCN1C(=O)C2CC=C(Cl)CC2C1=O)NCc1ccco1 (stereo not given)
- IC50 [15]: > 79.4 µM (inactive)
- IC50 [16]: > 79.4 µM (inactive)
- IC50 [17]: > 79.4 µM (inactive)

Structure (SMILES): O=C1c2cccc3cccc(c23)C(=O)N1CC1CCN(CC(O)COc2ccc3ccccc3c2)CC1 (stereo not given)
- IC50 [1]: 15 µM (active)
- EC50 [18]: 6.34 µM (active)
- IC50 (Bcl-2-related protein A1): > 20 µM (inactive)
- EC50 (Melanocortin receptor 4): 6.31 µM (active)
- IC50 [2]: 7.69 µM (active)
- EC50 (Streptokinase A): 17.9 µM (inconclusive)
- EC50 [10]: > 60 µM (not active)
- EC50 [12]: 1.65 µM (active)
- EC50 [19]: 18.5 µM (active)
- EC50 (Streptococcus): 18.6 µM (active)

Structure (SMILES): CC/N=C1\Cn2c(nc3scc(-c4ccccc4)c3c2=O)CN1CC
- IC50 [13]: > 100 µM (not active)
- IC50 [14]: > 100 µM (inactive)
